Experimental data from patent publication US7285664B2, “Heterocyclic or benzenic derivatives of lipoic acid, their preparation and their use as medicaments” (S.C.R.A.S. Societe de Conseils de Recherches et …, priority 2000, dated 2007).
Structures can show the parent of a compound that is named as a salt.

The compounds below were run on HT-22 cells (assay: Effects on the oxidative stress induced by glutamate on cells in culture (HT-22), MTT viability). Details: Mus musculus; protection of HT-22 cells from glutamate (5 mM); viability after 24 hours by MTT.
Format: cell-based
Experimental: Study of the Effects on the Oxidative Stress Induced by Glutamate on Cells in Culture (HT-22):
The inhibitory activity of the products of the invention is determined by measuring their ability to protect the cells of a mouse hippocampal cell line (HT-22) from oxidative stress caused by glutamate. The biosynthesis of glutathione, an essential element in cell detoxification of free radicals, requires the active transport of cystine to inside the cell. The glutamate by opposing the penetration of cystine causes a reduction in the level of gluthatione which leads to the death of the cell by oxidative stress (Demerle-Pallardy, C. et al., J. Neurochem. (2000), 74, 2079-2086; Davis, J. B. and Maher, P., Brain Res., (1994) 652: 169-173; Murphy, T. H. et al., Neuron, (1989) 2: 1547-1558). The cells are cultured at 37° C. in a DMEM medium with 10% of fetal calf serum added to it. The tests are carried out in 96-well plates containing 5000 cells per well. The glutamate (5 mM) is added to the medium containing or not containing the products to be tested. The cell viability is tested after 24 hours by the MTT process (Hansen, M. B. et al., J. Immunol. Processes (1989) 119: 203-210). The ability of the compounds to protect the cells from the toxic action of the glutamate is estimated in EC50, calculated relative to the viability of cells which have not been subjected to the action of the glutamate considered as 100% viability.

SMILES | EC50
NC(=Nc1ccc(N2CCN(C(=O)CCCCC3CCSS3)CC2)cc1)c1cccs1 (stereo not drawn) [Example 1, N′-(4-{4-[5-(1,2-dithiolan-3-yl)pentanoyl]-1-piperazinyl)phenyl)-2-thiophenecarboximidamide hydrochloride] | ≤ 4 µM
NC(=Nc1ccc(N2CCN(C(=O)CC3CCSS3)CC2)cc1)c1cccs1 (stereo not drawn) [Example 2, N′-(4-{4-[2-(1,2-dithiolan-3-yl)acetyl]-1-piperazinyl}phenyl)-2-thiophenecarboximidamide] | ≤ 4 µM
NC(=Nc1cccc(CN2CCN(C(=O)CC3CCSS3)CC2)c1)c1cccs1 (stereo not drawn) [Example 4, N′-[3-({4-[2-(1,2-dithiolan-3-yl)acetyl]-1-piperazinyl}methyl)phenyl]-2-thiophenecarboximidamide] | ≤ 4 µM
NC(=Nc1ccc(N2CCN(C(=O)NCCCCC3CCSS3)CC2)cc1)c1cccs1 (stereo not drawn) [Example 5, 4-(4-{[amino(2-thienyl)methylidene]amino}phenyl)-N-[4-(1,2-dithiolan-3-yl)butyl]-1-piperazinecarboxamide] | ≤ 4 µM
Cc1cc(N2CCN(C(=O)NCCCCC3CCSS3)CC2)ccc1N=C(N)c1cccs1 (stereo not drawn) [Example 7, 4-(4-{[amino(2-thienyl)methylidene]amino}-3-methylphenyl)-N-[4-(1,2-dithiolan-3-yl)butyl]-1-piperazinecarboxamide] | ≤ 4 µM
COc1cc(N=C(N)c2cccs2)ccc1N1CCN(C(=O)NCCCCC2CCSS2)CC1 (stereo not drawn) [Example 8, 4-(4-{[amino(2-thienyl)methylidene]amino}-2-methoxyphenyl)-N-[4-(1,2-dithiolan-3-yl)butyl]-1-piperazinecarboxamide] | ≤ 4 µM
COc1cc(N2CCN(C(=O)NCCCCC3CCSS3)CC2)ccc1N=C(N)c1cccs1 (stereo not drawn) [Example 9, 4-(4-{[amino(2-thienyl)methylidene]amino}-3-methoxyphenyl)-N-[4-(1,2-dithiolan-3-yl)butyl]-1-piperazinecarboxamide] | ≤ 4 µM
N#Cc1cc(N=C(N)c2cccs2)ccc1N1CCN(C(=O)NCCCCC2CCSS2)CC1 (stereo not drawn) [Example 10, 4-(4-{[amino(2-thienyl)methylidene]amino}-2-cyanophenyl)-N-[4-(1,2-dithiolan-3-yl)butyl]-1-piperazinecarboxamide] | ≤ 4 µM
NC(=Nc1cccc(CN2CCN(C(=O)NCCCCC3CCSS3)CC2)c1)c1cccs1 (stereo not drawn) [Example 11, 4-(3-{[amino(2-thienyl)methylidene]amino}benzyl)-N-[4-(1,2-dithiolan-3-yl)butyl]-1-piperazinecarboxamide] | ≤ 4 µM
